One assay has as its target T1, CBP (Homo sapiens, UniProt Q92793).
T1 construct: host or cells: A549 CBP HiBit cells
As to the kind of experiment: CBP degradation, HiBit technology in A549 CBP HiBit cells (24 h). The conditions noted are these: 24 hrs post treatment. Type of assay: cell-based. The gist of the method:
(§1)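 Degradation potency and Dmax came from luminescence after 10 min room-temperature lysis with HiBit detection buffer. Beforehand, HiBit-tagged A549 lines received serial compound dilutions (10 mM DMSO stocks) at 37 °C, 5% CO2. CBP cells were read at 24 h, p300 cells at 2 h.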

The target in another assay is T2, p300 (Homo sapiens, UniProt Q09472).
T2 construct: host or cells: A549 P300 HiBit cells
T2 sequence (Q09472 whole entry): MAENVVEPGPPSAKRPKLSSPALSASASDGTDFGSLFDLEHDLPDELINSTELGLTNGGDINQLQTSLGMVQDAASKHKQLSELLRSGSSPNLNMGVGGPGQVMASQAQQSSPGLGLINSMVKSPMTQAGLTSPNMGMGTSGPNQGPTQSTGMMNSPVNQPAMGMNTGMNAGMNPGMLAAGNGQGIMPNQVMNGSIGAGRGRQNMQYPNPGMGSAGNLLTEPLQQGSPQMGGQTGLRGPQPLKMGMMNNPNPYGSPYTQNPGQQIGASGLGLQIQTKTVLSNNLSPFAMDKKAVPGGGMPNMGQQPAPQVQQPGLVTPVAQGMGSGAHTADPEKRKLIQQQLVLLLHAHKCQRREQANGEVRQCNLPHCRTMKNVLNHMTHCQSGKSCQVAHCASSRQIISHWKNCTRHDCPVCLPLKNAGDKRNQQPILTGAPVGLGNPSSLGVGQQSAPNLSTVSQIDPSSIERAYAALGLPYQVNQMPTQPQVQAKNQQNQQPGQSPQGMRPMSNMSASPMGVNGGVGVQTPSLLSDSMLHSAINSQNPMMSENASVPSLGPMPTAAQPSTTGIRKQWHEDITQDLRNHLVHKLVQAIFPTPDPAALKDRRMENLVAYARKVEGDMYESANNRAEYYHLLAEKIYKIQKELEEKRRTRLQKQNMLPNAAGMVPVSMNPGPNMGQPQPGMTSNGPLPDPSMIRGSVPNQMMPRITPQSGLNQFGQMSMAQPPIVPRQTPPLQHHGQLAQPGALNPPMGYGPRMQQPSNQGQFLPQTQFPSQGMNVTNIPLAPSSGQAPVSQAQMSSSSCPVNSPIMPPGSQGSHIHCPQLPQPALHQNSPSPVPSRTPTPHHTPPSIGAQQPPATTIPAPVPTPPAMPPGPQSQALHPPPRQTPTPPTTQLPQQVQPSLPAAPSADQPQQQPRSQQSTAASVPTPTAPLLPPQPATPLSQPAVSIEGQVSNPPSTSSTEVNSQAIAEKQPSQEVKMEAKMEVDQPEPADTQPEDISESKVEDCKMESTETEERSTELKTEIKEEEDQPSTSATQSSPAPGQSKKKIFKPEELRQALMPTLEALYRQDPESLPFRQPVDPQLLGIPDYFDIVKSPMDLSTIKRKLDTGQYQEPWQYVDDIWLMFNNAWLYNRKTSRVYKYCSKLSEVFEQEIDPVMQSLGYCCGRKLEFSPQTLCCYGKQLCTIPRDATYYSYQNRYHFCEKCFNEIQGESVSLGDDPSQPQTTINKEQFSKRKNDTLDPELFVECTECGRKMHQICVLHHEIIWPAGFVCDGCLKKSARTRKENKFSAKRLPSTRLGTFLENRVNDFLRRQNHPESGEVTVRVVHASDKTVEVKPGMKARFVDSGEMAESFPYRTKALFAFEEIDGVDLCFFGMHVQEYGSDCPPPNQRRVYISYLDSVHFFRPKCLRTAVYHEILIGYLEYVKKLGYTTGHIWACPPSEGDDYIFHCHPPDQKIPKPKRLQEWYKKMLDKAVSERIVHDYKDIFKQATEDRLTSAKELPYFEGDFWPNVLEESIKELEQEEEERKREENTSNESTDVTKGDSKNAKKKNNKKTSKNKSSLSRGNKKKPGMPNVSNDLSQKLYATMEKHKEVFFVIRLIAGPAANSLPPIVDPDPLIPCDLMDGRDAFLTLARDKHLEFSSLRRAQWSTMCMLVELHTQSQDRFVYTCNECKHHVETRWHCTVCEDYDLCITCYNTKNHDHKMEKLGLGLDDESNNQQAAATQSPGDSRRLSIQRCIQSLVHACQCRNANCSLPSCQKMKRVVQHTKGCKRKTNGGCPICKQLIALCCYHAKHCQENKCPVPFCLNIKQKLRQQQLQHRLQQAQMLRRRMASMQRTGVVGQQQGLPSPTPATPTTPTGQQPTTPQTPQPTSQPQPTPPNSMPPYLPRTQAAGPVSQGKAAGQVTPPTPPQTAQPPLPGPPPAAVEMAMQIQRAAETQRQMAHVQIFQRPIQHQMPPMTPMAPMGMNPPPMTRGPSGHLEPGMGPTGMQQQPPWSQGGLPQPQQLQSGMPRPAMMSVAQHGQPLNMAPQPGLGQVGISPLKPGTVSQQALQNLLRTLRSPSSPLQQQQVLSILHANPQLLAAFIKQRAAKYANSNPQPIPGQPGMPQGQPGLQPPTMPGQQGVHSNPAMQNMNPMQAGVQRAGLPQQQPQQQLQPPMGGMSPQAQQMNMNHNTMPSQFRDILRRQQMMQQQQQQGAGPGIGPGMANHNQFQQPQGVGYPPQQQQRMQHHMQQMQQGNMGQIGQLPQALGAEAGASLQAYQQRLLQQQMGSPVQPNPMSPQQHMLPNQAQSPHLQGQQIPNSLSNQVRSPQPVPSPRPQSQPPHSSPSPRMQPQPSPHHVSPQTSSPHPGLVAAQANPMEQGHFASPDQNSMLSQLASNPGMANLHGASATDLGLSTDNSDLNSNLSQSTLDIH
As to the kind of experiment: P300 degradation, HiBit technology in A549 P300 HiBit cells (2 h). Type of assay: cell-based. The settings on record: 2 hrs post treatment; for Dmax: A549, A549 P300 HiBit cells; for DC50: A549 P300 HiBit cells. The gist of the method:
as §1

Experimental findings from patent US20250114345A1, “COMPOUNDS AND COMPOSITIONS AS CBP/P300 DEGRADERS AND USES THEREOF” (Oncopia Therapeutics, Inc. d/b/a/ SK Life Science Labs, priority 2023, published 2025) are described below.

Some results are limits rather than exact numbers.

T1 sequence (Q92793 whole entry): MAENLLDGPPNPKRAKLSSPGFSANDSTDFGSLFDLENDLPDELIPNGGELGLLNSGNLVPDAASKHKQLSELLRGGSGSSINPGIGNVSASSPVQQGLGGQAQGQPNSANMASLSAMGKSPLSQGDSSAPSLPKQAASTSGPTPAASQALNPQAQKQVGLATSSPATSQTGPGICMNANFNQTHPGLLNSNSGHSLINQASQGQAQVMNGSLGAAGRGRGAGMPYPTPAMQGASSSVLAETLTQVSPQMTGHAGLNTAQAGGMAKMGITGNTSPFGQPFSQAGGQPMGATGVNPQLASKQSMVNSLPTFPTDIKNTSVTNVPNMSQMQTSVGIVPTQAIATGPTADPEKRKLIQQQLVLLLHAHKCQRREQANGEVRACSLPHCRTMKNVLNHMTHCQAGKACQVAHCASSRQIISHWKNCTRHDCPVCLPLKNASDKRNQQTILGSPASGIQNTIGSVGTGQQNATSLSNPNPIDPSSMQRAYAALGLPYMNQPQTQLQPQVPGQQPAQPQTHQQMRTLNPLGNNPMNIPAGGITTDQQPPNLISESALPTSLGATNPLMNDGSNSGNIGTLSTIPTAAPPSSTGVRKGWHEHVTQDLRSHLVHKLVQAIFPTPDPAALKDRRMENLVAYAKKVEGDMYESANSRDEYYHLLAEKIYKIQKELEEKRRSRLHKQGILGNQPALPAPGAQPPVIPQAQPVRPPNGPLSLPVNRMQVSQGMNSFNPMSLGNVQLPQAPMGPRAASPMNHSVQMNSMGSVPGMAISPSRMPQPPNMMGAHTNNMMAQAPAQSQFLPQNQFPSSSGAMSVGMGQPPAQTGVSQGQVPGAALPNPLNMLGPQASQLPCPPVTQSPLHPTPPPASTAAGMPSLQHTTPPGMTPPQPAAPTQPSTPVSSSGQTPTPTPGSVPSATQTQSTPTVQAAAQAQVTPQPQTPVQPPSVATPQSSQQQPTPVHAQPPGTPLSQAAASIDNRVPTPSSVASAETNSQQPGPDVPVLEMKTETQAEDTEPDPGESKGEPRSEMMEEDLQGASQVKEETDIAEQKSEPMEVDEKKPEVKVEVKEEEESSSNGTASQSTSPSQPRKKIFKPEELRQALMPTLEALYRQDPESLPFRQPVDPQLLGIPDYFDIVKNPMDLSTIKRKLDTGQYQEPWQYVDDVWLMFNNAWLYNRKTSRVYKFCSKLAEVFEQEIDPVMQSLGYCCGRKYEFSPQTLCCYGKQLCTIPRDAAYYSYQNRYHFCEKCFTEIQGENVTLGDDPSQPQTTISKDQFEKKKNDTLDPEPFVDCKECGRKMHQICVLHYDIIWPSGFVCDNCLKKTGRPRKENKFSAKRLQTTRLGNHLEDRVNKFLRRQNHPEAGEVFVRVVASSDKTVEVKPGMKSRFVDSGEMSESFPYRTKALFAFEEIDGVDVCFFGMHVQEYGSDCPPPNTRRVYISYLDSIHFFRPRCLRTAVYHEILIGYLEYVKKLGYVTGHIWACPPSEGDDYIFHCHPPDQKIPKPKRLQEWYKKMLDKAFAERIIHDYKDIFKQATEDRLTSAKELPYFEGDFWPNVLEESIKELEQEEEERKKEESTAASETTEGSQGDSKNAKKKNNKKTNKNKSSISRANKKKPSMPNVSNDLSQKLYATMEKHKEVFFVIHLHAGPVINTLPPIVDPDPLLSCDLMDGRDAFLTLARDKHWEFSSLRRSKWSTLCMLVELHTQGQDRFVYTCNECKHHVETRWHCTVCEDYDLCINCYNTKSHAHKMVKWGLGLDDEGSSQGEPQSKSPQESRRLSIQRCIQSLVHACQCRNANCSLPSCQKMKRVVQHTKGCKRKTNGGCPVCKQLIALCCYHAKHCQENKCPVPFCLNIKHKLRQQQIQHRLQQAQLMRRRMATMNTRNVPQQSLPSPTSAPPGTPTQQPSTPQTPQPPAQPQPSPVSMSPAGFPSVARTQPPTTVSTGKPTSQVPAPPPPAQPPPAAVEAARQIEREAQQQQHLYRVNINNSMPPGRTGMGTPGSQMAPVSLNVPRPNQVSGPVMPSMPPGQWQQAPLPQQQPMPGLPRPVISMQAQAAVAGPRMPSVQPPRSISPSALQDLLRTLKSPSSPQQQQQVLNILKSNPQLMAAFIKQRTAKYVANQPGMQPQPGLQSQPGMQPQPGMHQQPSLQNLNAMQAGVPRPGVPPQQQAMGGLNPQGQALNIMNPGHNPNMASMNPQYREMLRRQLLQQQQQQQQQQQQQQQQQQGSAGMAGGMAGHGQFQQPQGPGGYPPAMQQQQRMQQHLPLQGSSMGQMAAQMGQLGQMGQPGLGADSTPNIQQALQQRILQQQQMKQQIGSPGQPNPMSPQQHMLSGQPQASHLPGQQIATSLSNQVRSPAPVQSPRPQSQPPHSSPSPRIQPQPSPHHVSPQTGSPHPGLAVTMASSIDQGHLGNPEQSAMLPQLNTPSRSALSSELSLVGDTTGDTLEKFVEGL

On CBP, `Cc1cc(-c2cc3c(cn2)N(c2cccc4c2cc(C)c(=O)n4C)CCO3)cnc1C(=O)NCC#Cc1ccc2occ(C3CCC(=O)NC3=O)c2c1` (centres unmarked) [Example B83, 5-(4-(1,3-dimethyl-2-oxo-1,2-dihydroquinolin-5-yl)-3,4-dihydro-2H-pyrido[4,3-b][1,4]oxazin-7-yl)-N-(3-(3-(2,6-dioxopiperidin-3-yl)benzofuran-5-yl)prop-2-yn-1-yl)-3-methylpicolinamide] gave a DC50 of 100 to 999 nM and a Dmax of 40 to 59%. Moreover, at p300, the Dmax was greater than 80% and the DC50 fell in the range of 1 to 9.9 nM.
The like results for `Cc1cc2c(N3CCCc4cc(-c5ccc(C(=O)NCC#Cc6cc7c(C8CCC(=O)NC8=O)nccc7o6)nc5)nnc43)cc(C3CCOCC3)cc2n(C)c1=O` (centres unmarked) [Example B84, 5-(8-(1,3-dimethyl-2-oxo-7-(tetrahydro-2H-pyran-4-yl)-1,2-dihydroquinolin-5-yl)-5,6,7,8-tetrahydropyrido[2,3-c]pyridazin-3-yl)-N-(3-(4-(2,6-dioxopiperidin-3-yl)furo [3,2-c]pyridin-2-yl)prop-2-yn-1-yl) picolinamide] were, in that order, 100 to 999 nM, less than 20%, greater than 80% and less than 1 nM.
For `Cc1cc2c(N3CCCc4nc(-c5cnc(C(=O)NCC#Cc6cc7c(C8CCC(=O)NC8=O)cccc7o6)cn5)ncc43)cc(C3CCOCC3)cc2n(C)c1=O` (centres unmarked) [Example B87, 5-(5-(1,3-dimethyl-2-oxo-7-(tetrahydro-2H-pyran-4-yl)-1,2-dihydroquinolin-5-yl)-5,6,7,8-tetrahydropyrido[3,2-d]pyrimidin-2-yl)-N-(3-(4-(2,6-dioxopiperidin-3-yl)benzofuran-2-yl)prop-2-yn-1-yl)pyrazine-2-carboxamide] the same measures were greater than 1000 nM, less than 20%, 60 to 79% and 1 to 9.9 nM.
In the case of `Cc1cc2c(-c3cccc4cc(-c5ccc(C(=O)NCC#Cc6ccc7occ(C8CCC(=O)NC8=O)c7c6)nc5)ncc34)nc(OC(C)C)cc2n(C)c1=O` (centres unmarked) [Example B88, N-(3-(3-(2,6-dioxopiperidin-3-yl)benzofuran-5-yl)prop-2-yn-1-yl)-5-(8-(7-isopropoxy-1,3-dimethyl-2-oxo-1,2-dihydro-1,6-naphthyridin-5-yl)isoquinolin-3-yl)picolinamide], at CBP, the DC50 is greater than 1000 nM and the Dmax is less than 20%. On p300, this compound had a Dmax greater than 80% and a DC50 of 1 to 9.9 nM.
The like results for `Cc1cc2c(N3CCCc4nc(-c5ccc(C(=O)NCC#Cc6cc7c(C8CCC(=O)NC8=O)c(F)ccc7o6)nc5)ncc43)cc(C3CCOCC3)cc2n(C)c1=O` (centres unmarked) [Example B90, 5-(5-(1,3-dimethyl-2-oxo-7-(tetrahydro-2H-pyran-4-yl)-1,2-dihydroquinolin-5-yl)-5,6,7,8-tetrahydropyrido[3,2-d]pyrimidin-2-yl)-N-(3-(4-(2,6-dioxopiperidin-3-yl)-5-fluorobenzo-furan-2-yl)prop-2-yn-1-yl)picolinamide] were, in that order, greater than 1000 nM, less than 20%, greater than 80% and less than 1 nM.
For `Cc1cc2c(-c3cccc4cc(-c5ccc(C(=O)NCC#Cc6ccc7occ(C8CCC(=O)NC8=O)c7c6)nc5)ncc34)nc(N3CCOCC3)cc2n(C)c1=O` (centres unmarked) [Example B92, 5-(8-(1,3-dimethyl-7-morpholino-2-oxo-1,2-dihydro-1,6-naphthyridin-5-yl)isoquinolin-3-yl)-N-(3-(3-(2,6-dioxopiperidin-3-yl)benzofuran-5-yl)prop-2-yn-1-yl)picolinamide], on CBP, the DC50 lay within 10 to 99 nM and the Dmax lay within 20 to 39%. Also, at p300, the Dmax is greater than 80% and the DC50 was in the range of 1 to 9.9 nM.
For `Cc1cc2c(N3CCCc4nc(-c5ccc(C(=O)NCC#Cc6cc7c(C8CCC(=O)NC8=O)nccc7o6)nc5)ncc43)cc(C3CCOCC3)cc2n(C)c1=O` (centres unmarked) [Example B94, 5-(5-(1,3-dimethyl-2-oxo-7-(tetrahydro-2H-pyran-4-yl)-1,2-dihydroquinolin-5-yl)-5,6,7,8-tetrahydropyrido[3,2-d]pyrimidin-2-yl)-N-(3-(4-(2,6-dioxopiperidin-3-yl)furo[3,2-c]pyridin-2-yl)prop-2-yn-1-yl)picolinamide], at CBP, the DC50 is 1 to 9.9 nM and the Dmax lay within 20 to 39%. At p300, this compound gave a Dmax greater than 80% and a DC50 of less than 1 nM.
The like results for `Cc1cc2c(N3CCOc4nc(-c5ccc(C(=O)NCC#Cc6cc7c(C8CCC(=O)NC8=O)cccc7o6)nc5)ncc43)cc(C3CCOCC3)cc2n(C)c1=O` (centres unmarked) [Example B96, 5-(5-(1,3-dimethyl-2-oxo-7-(tetrahydro-2H-pyran-4-yl)-1,2-dihydroquinolin-5-yl)-6,7-dihydro-5H-pyrimido[4,5-b][1,4]oxazin-2-yl)-N-(3-(4-(2,6-dioxopiperidin-3-yl)benzofuran-2-yl)prop-2-yn-1-yl)picolinamide] were, in that order, 100 to 999 nM, less than 20%, greater than 80% and 1 to 9.9 nM.
At CBP, `Cc1cc2c(-c3cccc4cc(-c5ccc(C(=O)NCC#Cc6ccc7occ(C8CCC(=O)NC8=O)c7c6)nc5)ncc34)nc(C(C)C)cc2n(C)c1=O` (centres unmarked) [Example B102, N-(3-(3-(2,6-dioxopiperidin-3-yl)benzofuran-5-yl)prop-2-yn-1-yl)-5-(8-(7-isopropyl-1,3-dimethyl-2-oxo-1,2-dihydro-1,6-naphthyridin-5-yl)isoquinolin-3-yl)picolinamide] gave a DC50 greater than 1000 nM and a Dmax of less than 20%. Moreover, at p300, the Dmax was greater than 80% and the half-maximal degradation concentration (DC50) was in the range of 1 to 9.9 nM.
On CBP, `Cc1cc(-c2ncc3c(n2)CCCN3c2cc(C3CCOCC3)nc3c2cc(C)c(=O)n3C)cnc1C(=O)NCC#Cc1cc2c(C3CCC(=O)NC3=O)cccc2o1` (centres unmarked) [Example B103, 5-(5-(6,8-dimethyl-7-oxo-2-(tetrahydro-2H-pyran-4-yl)-7,8-dihydro-1,8-naphthyridin-4-yl)-5,6,7,8-tetrahydropyrido[3,2-d]pyrimidin-2-yl)-N-(3-(4-(2,6-dioxopiperidin-3-yl)benzofuran-2-yl)prop-2-yn-1-yl)-3-methylpicolinamide] gave a DC50 of 100 to 999 nM and a Dmax of less than 20%. Besides, at p300, the Dmax was greater than 80% and the 50% degradation concentration (DC50) was 1 to 9.9 nM.
For `Cc1cc2c(N3CCCc4nc(-c5ccc(C(=O)NCC#Cc6cc7c(C8CCC(=O)NC8=O)nccc7o6)nc5)ncc43)cccc2n(C)c1=O` (centres unmarked) [Example B106, 5-(5-(1,3-dimethyl-2-oxo-1,2-dihydroquinolin-5-yl)-5,6,7,8-tetrahydropyrido[3,2-d]pyrimidin-2-yl)-N-(3-(4-(2,6-dioxopiperidin-3-yl)furo [3,2-c]pyridin-2-yl)prop-2-yn-1-yl) picolinamide] the same measures were 100 to 999 nM, less than 20%, greater than 80% and less than 1 nM.
The like results for `Cc1cc2c(N3CCCc4nc(-c5ccc(C(=O)NCC#Cc6ccc7occ(C89CC(C8)C(=O)NC9=O)c7c6)nc5)ncc43)cc(C3CCOCC3)cc2n(C)c1=O` [Example B107, 5-(5-(1,3-dimethyl-2-oxo-7-(tetrahydro-2H-pyran-4-yl)-1,2-dihydroquinolin-5-yl)-5,6,7,8-tetrahydropyrido[3,2-d]pyrimidin-2-yl)-N-(3-(3-(2,4-dioxo-3-azabicyclo[3.1.1]heptan-1-yl)benzofuran-5-yl)prop-2-yn-1-yl) picolinamide] were, in that order, greater than 1000 nM, less than 20%, 60 to 79% and 1 to 9.9 nM.
For `Cc1cc2c(N3CCCc4nc(-c5ccc(C(=O)NCC#Cc6ccc7onc(C8CCC(=O)NC8=O)c7c6)nc5)ncc43)cc(C3CCOCC3)cc2n(C)c1=O` (centres unmarked) [Example B108, 5-(5-(1,3-dimethyl-2-oxo-7-(tetrahydro-2H-pyran-4-yl)-1,2-dihydroquinolin-5-yl)-5,6,7,8-tetrahydropyrido[3,2-d]pyrimidin-2-yl)-N-(3-(3-(2,6-dioxopiperidin-3-yl)benzo[d]isoxazol-5-yl)prop-2-yn-1-yl)picolinamide] the same measures were 100 to 999 nM, less than 20%, greater than 80% and less than 1 nM.
As for `Cc1cc2c(N3CCCc4nc(-c5ccc(C(=O)NCC#Cc6ccc7occ(C8CCC(=O)NC8=O)c7c6)nc5)ncc43)cccc2n(C)c1=O` (centres unmarked) [Example B110, 5-(5-(1,3-dimethyl-2-oxo-1,2-dihydroquinolin-5-yl)-5,6,7,8-tetrahydropyrido[3,2-d]pyrimidin-2-yl)-N-(3-(3-(2,6-dioxopiperidin-3-yl)benzofuran-5-yl)prop-2-yn-1-yl)picolinamide], the DC50 on CBP was greater than 1000 nM; on p300 it was 1 to 9.9 nM. Further, the Dmax at CBP is less than 20%; at p300, greater than 80%.
On to `CN1Cc2c(-c3cccc4cc(-c5ccc(C(=O)NCC#Cc6ccc7cnn(C8CCC(=O)NC8=O)c7c6)nc5)ncc34)cc(C(C)(F)F)cc2N(C)C1=O` (centres unmarked) [Example B111, 5-(8-(7-(1,1-difluoroethyl)-1,3-dimethyl-2-oxo-1,2,3,4-tetrahydroquinazolin-5-yl)isoquinolin-3-yl)-N-(3-(1-(2,6-dioxopiperidin-3-yl)-1H-indazol-6-yl)prop-2-yn-1-yl)picolinamide], for which the DC50 lay within 10 to 99 nM at CBP and 1 to 9.9 nM at p300.
`COc1cc(N2CCOc3cc(-c4ccc(C(=O)NCC#Cc5ccc6occ(C7CCC(=O)NC7=O)c6c5)nc4)ncc32)c2cc(C)c(=O)n(C)c2c1` (centres unmarked) [Example B112, N-(3-(3-(2,6-dioxopiperidin-3-yl)benzofuran-5-yl)prop-2-yn-1-yl)-5-(4-(7-methoxy-1,3-dimethyl-2-oxo-1,2-dihydroquinolin-5-yl)-3,4-dihydro-2H-pyrido[4,3-b][1,4]oxazin-7-yl) picolinamide]: at CBP, the DC50 was 100 to 999 nM and the Dmax was less than 20%. On p300, this compound gave a Dmax greater than 80% and a DC50 of less than 1 nM.
